According to patent publication US20230105108A1, “COMPOUNDS FOR THE TREATMENT OF BACTERIAL INFECTIONS AND POTENTIATION OF ANTIBIOTICS” (GEORGIA STATE UNIVERSITY RESEARCH FOUNDATION, INC., priority 2019, published 2023):
Structures can show the parent of a compound that is named as a salt.

Tests used:
Format in all cases: cell-based
[1] = IC50 of Table 7 (cell line not stated)
[2] = system: NDM-1 expressing E. coli strain; assay: microbe, parasite or virus in culture; settings: Escherichia coli; NDM-1 expressing E. coli; read-out: MIC of MD-124
[3] = system: E. coli; assay: Bacterial resistance frequency study
Protocol: Bacterial resistance frequency study: E. coli was grown overnight in Mueller Hinton II cation-adjusted broth medium and concentrated to ˜5×10^9 CFUs/ml in Mueller Hinton II cation-adjusted broth. […] Then the plates were incubated at 37° C. for 48 h. Then the colonies formed on the plate were recorded and resistant frequency was calculated.

[4] = system: K. pneumoniae (43816); assay: MIC, sensitization fold and FIC index on K. pneumoniae; settings: Klebsiella pneumoniae; K. pneumoniae; read-out: MIC of MD-124

Row | SMILES | IC50 [1] [µM] | MIC [2] [µg/mL] | resistant frequency towards MD-124 ([3]; 10 μg/ml MD-124, 2.7×10^10 CFUs tested) | lower resistance frequency towards MD-124/antibiotic combination than the antibiotic itself ([3]; 10 μg/ml MD-124, antibiotic 2 to 7-fold of MIC) | MIC [4] [µg/mL]
1 | Cc1cc(COc2ccc(C(=N)N)cc2)cc(COc2ccc(C(=N)N)cc2)c1 [MD-100, 4,4′-(((5-methyl-1,3-phenylene)bis(methylene))bis(oxy))dibenzimidamide dihydrochloride] | 100 | – | – | – | –
2 | N=C(N)c1ccc(COc2cc(OCc3ccc(C(=N)N)cc3)cc(C(F)(F)F)c2)cc1 [MD-124, 4,4′-(((5-(trifluoromethyl)-1,3-phenylene)bis(oxy))bis(methylene)) dibenzimidamide dihydrochloride] | – | 50 | < 3.7×10^−11 | 2 to 3 orders of magnitude | 25
